Patent US7973056B2, “Triazole derivative or salt thereof” (Fujifilm Finechemicals Co., Ltd, priority 2008, dated 2011)
≈ marks a conversion by molar mass, not a printed value.

Columns and labels:
[1] = tested on: Candida albicans ATCC 44858; assay: Antifungal activity test (in vitro), MIC; format: cell-based; conditions: ATCC44858
[2] = tested on: Trichophyton rubrum ATCC 10218; assay: Antifungal activity test (in vitro), MIC; format: cell-based; conditions: ATCC10218
Method: Minimum inhibitory concentration (MIC) of each of the compounds obtained in Examples 1 to 12 was measured for respective fungi at MOS Pharm Service, by the methods described in Antimicrobial Agents and Chemotherapy, vol. 3, pp. 40-48 (1973), Antimicrobial Agents and Chemotherapy, vol. 33, pp. 215-222 (1989) and Antimicrobial Agents and Chemotherapy, vol. 38, pp. 2362-2368 (1994). The measuring conditions are shown in the following. In this case, Voriconazol was used as a comparative compound. Trichophyton rubrum ATCC 10218; Cultured at 28° C. for 3 days using fluid Sabouraud medium, and this was used as a cell suspension. Each of the compounds of the invention was adjusted to a concentration of 1% by weight using dimethyl sulfoxide (DMSO) and a medium similar to the respective medium used in the above-mentioned fungal culture, having a final concentration of from 0.001 to 100 μg/ml, was prepared. Each of the inoculation cell suspensions prepared by the above-mentioned methods was inoculated onto this agar plate. […] In this connection, Voriconazol was used as the comparative compound C-1.

[3] = tested on: Candida albicans TIMM 1623; assay: Antifungal activity test (in vivo), mouse systemic infection model; conditions: for T/C (%): survival time of administration group / control group x100
Method: With respect to compounds I-1, I-3 and I-6 obtained in Examples 1, 3 and 6 respectively, therapeutic effects at the time of subcutaneous administration of compounds I-1, I-3 and I-6 on a mouse systemic infection model by Candida albicans TIMM 1623 were tested.
The test was carried out using 5 animals for each of the drug administration groups and Negative control group (sterile physiological saline administration group).
Each of compounds I-1, I-3 and I-6 was dissolved in and diluted with dimethyl sulfoxide (DMSO; Wako Pure Chemical Industries, Ltd.) and then prepared into a predetermined concentration by diluting with sterile physiological saline.
As the control experiment, Fluconazole (FLCZ, Flanos intravenous drip solution 100 mg; TOYAMA CHEMICAL CO, LTD.) diluted to a predetermined concentration with sterile physiological saline was used.
On the next day of the receipt of animals, body weights of mice were measured and CP (crude protein) was intraperitoneally administered at a dose of 200 mg/kg based on the individual body weight, and then they were reared for 3 days.
Cells of C. albicans TIMM 1623 cultured overnight at 35° C. on SDA (Sabouraud dextrose agar; Eiken Chemical Co., Ltd.) plate medium were suspended in sterile physiological saline and used as the Stock solution, and a portion thereof was diluted with 10% formalin (Wako Pure Chemical Industries, Ltd.). The number of cells in the diluted liquid was counted under a biological microscope using a hemocytometer, and then an inoculum was prepared by diluting the stock solution with sterile physiological saline (about 1.5×10^5 cells/ml). By inoculating 0.2 ml of this cell suspension through caudal vein, infection was induced. In this connection, the number of viable cells in the inoculum was verified by spreading the cell suspension optionally diluted with sterile physiological saline on an SDA plate medium and then culturing at 35° C. Each of the substances to be tested, control substance or sterile physiological saline was subcutaneously administered after 2 hours of the infection and for 3 days starting on the next day of infection once a day, a total of 4 times. After measuring individual body weight on the next day of infection, CP was again administered intraperitoneally at a dose of 100 mg/kg. The number of survived mice was observed and recorded for 14 days starting on the next day of infection.
The results were shown in Table 3 below and FIGS. 1A to 1D. In the table, the administration dose of the compounds of the present invention and the comparative compound represents a mg amount per 1 kg of a mouse weight (mg/kg).
Significant deference was tested, by 5% for both sides of the levels of significance, in accordance with the Kaplan-Meier method Logrank test (comparison of multiple groups), on the survival time distribution of each of the substances to be tested and control substance administration groups and sterile physiological saline administration group. SAS release 8.2 (SAS Institute Japan) was used in the Kaplan-Meier method Logrank test. (T/C(%)=[survival time of administration group (integrated value)/survival time of control group (integrated value)]×100)

## C[C@@H](N1CC=C(c2ccccn2)CC1)[C@](O)(Cn1cncn1)c1ccc(F)cc1F [I-3, (2R,3R)-2-(2,4-difluorophenyl)-3-(3′,6′-dihydro-2,4′-bipyridin-1′(2′H)-yl)-1-(1,2,4-triazol-1-yl)butan-2-ol]
[1]
  MIC: 1 µg/mL (≈ 2.43 µM)
[2]
  MIC: 0.3 µg/mL (≈ 0.729 µM)
[3]; 0.1 mg/kg s.c., day 0
  survival rate: 100
[3]; 0.1 mg/kg s.c., day 1
  survival rate: 100
[3]; 0.1 mg/kg s.c., day 2
  survival rate: 100
[3]; 0.1 mg/kg s.c., day 3
  survival rate: 60
[3]; 0.1 mg/kg s.c., day 4
  survival rate: 60
[3]; 0.1 mg/kg s.c., day 5
  survival rate: 60
[3]; 0.1 mg/kg s.c., day 6
  survival rate: 60
[3]; 0.1 mg/kg s.c., day 7
  survival rate: 40
[3]; 0.1 mg/kg s.c., day 8
  survival rate: 40
[3]; 0.1 mg/kg s.c., day 9
  survival rate: 40
[3]; 0.1 mg/kg s.c., day 10
  survival rate: 40
[3]; 0.1 mg/kg s.c., day 11
  survival rate: 40
[3]; 0.1 mg/kg s.c., day 12
  survival rate: 40
[3]; 0.1 mg/kg s.c., day 13
  survival rate: 40
[3]; 0.1 mg/kg s.c., day 14
  survival rate: 40
[3]; 0.1 mg/kg s.c.
  T/C (%): 139%
[3]; 1 mg/kg s.c., day 0
  survival rate: 100
[3]; 1 mg/kg s.c., day 1
  survival rate: 100
[3]; 1 mg/kg s.c., day 2
  survival rate: 100
[3]; 1 mg/kg s.c., day 3
  survival rate: 80
[3]; 1 mg/kg s.c., day 4
  survival rate: 80
[3]; 1 mg/kg s.c., day 5
  survival rate: 60
[3]; 1 mg/kg s.c., day 6
  survival rate: 40
[3]; 1 mg/kg s.c., day 7
  survival rate: 40
[3]; 1 mg/kg s.c., day 8
  survival rate: 40
[3]; 1 mg/kg s.c., day 9
  survival rate: 40
[3]; 1 mg/kg s.c., day 10
  survival rate: 40
[3]; 1 mg/kg s.c., day 11
  survival rate: 40
[3]; 1 mg/kg s.c., day 12
  survival rate: 40
[3]; 1 mg/kg s.c., day 13
  survival rate: 40
[3]; 1 mg/kg s.c., day 14
  survival rate: 40
[3]; 1 mg/kg s.c.
  T/C (%): 142%
[3]; 10 mg/kg s.c., day 0
  survival rate: 100
[3]; 10 mg/kg s.c., day 1
  survival rate: 100
[3]; 10 mg/kg s.c., day 2
  survival rate: 100
[3]; 10 mg/kg s.c., day 3
  survival rate: 60
[3]; 10 mg/kg s.c., day 4
  survival rate: 60
[3]; 10 mg/kg s.c., day 5
  survival rate: 60
[3]; 10 mg/kg s.c., day 6
  survival rate: 60
[3]; 10 mg/kg s.c., day 7
  survival rate: 40
[3]; 10 mg/kg s.c., day 8
  survival rate: 20
[3]; 10 mg/kg s.c., day 9
  survival rate: 20
[3]; 10 mg/kg s.c., day 10
  survival rate: 20
[3]; 10 mg/kg s.c., day 11
  survival rate: 20
[3]; 10 mg/kg s.c., day 12
  survival rate: 20
[3]; 10 mg/kg s.c., day 13
  survival rate: 20
[3]; 10 mg/kg s.c., day 14
  survival rate: 20
[3]; 10 mg/kg s.c.
  T/C (%): 116%
